The numbers were not newly measured in patent publication US20240174947A1, “SURFACTANT COMPOSITIONS” (LANKEM LTD., priority 2021, published 2024), which cites them from elsewhere.

The series has as its system reconstructed human epidermis (RhE). Conditions: for ET50: typical reference ET50 irritancy results for commonly used anionic and amphoteric surfactants; for Classification (expected in vivo irritancy): typical reference results for commonly used anionic and amphoteric surfactants, assigned from ET50.

Take `CCCCCCCCCCCCOS(=O)(=O)[O-].[Na+]` [Sodium lauryl sulfate]: the “ET50” value was 9.37 h and the “Classification (expected in vivo irritancy)” value (“Classification” for short) is reported as “Moderate to mild (4-12)”.
Cocamidopropyl betaine: the “ET50” value was 29.4 h and the “Classification” value was “Non-irritating (>24)”.
For the compound Sodium laureth sulfate, the “ET50” value was 10.25 h and the “Classification” value is on record as “Moderate to mild (4-12)”.
